Laboratory results: PMC8433497, “DNA-encoded chemistry technology yields expedient access to SARS-CoV-2 M^pro inhibitors” (Proceedings of the National Academy of Sciences of the …, 2021)
“Also recorded” adds a separate entry of the source. Like-named read-outs stand apart in the source and are kept apart here.

Key:
[1] = Metabolic stability in mouse liver microsomes; format: in vitro ADME; conditions: for half-life at 2 μM: 0.5 mg protein/ml, 2.0 uM compound, 1.0 mM NADPH, read-out: MLM t1/2
Description: (§1) The samples were collected at specific time points, 0, 30, and 60 min, in duplicate. The reactions were terminated by adding an equivalent volume of ice-cold methanol and vortexed. […] Three microliters […] of the supernatant was analyzed by UHPLC-Q Exactive Orbitrap MS (Thermo Fisher Scientific) equipped with 50-mm × 4.6-mm column (XDB C-18; Agilent Technologies). The column temperature was maintained at 40 °C. The flow rate was at 0.3 mL/min with a 30% mobile phase (acetonitrile containing 0.1% formic acid). Q Exactive MS was operated in positive mode with electrospray ionization. Ultrapure nitrogen was applied as the sheath (45 arbitrary units), auxiliary (10 arbitrary units), sweep (1.0 arbitrary unit), and the collision gas. […] Mass Spectrometry (MS) data were acquired from 80 to 1,200 Da in profile mode.

[2] = Metabolic stability in human liver microsomes; format: in vitro ADME; conditions: for half-life at 2 μM: 0.5 mg protein/ml, 2.0 uM compound, 1.0 mM NADPH, read-out: HLM t1/2
Description: as §1

[3] = Plasma stability assay, mouse plasma; format: in vitro ADME; conditions: 10 µM, 37 °C, after 2-h incubation
Description: (§2) Compound CDD-1713 and CDD-1976 were incubated in human and mouse plasma, respectively, at a concentration of 10 µM in duplicate (n = 2) at 37 °C. At time points of 0, 30, 60, and 120 min, 15 µL of sample were taken out and the reactions terminated by adding 75 µL of ice-cold methanol. The reaction mixtures were then vortexed for 30 s and centrifuged at rcf 15,000 for 15 min. Following centrifugation, 3 μL of the supernatant was analyzed using UHPLC-Q Exactive Orbitrap MS. The percentage of test compound remaining at the individual time points relative to the 0-min sample was then determined.

renin = molecular target: T1, renin (Homo sapiens, UniProt P00797); assay: Renin assay; format: biochemical; conditions: best off-target inhibition observed; read-out: estimated Kiapp, renin
T1 construct: purchased BPS Bioscience 80211
T1 sequence (P00797 67-406): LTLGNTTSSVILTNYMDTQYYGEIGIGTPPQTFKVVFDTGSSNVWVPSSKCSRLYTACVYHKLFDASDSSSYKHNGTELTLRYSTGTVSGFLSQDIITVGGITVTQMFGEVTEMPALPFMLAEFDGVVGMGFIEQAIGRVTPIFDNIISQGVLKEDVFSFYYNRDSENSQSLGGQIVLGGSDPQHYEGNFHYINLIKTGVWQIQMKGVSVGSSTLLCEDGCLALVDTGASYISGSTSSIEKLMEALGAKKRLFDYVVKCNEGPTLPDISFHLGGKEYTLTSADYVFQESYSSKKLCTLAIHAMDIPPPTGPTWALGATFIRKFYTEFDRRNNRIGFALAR
Description: Renin assay: A kit from BPS Bioscience (80211) was used with adjustments to the manufacturer’s protocol as follows. The reaction was run at RT in black 96 half-area plates in a total reaction volume of 50 μL containing 0.01% Tween-20. Instead of measuring endpoints at 30 min the increase in fluorescence (Ex 490 nm, Em 520 nm) per second (RFU/s) was obtained from linear progress curves over 10 min. Fractional activities were calculated from reactions with no inhibitors. Aliskiren was used as a positive control.

SARS-CoV-2 M^pro-His6 = SARS-CoV-2 M^pro-His6 (Severe acute respiratory syndrome coronavirus 2, UniProt P0DTD1); assay: M^pro-His6 enzyme inhibition assay, fluorescent peptide reporter; format: biochemical; conditions: for M^pro inhibitory activity (in words): analogs compared with CDD-1713
[4] = Plasma stability assay, human plasma; format: in vitro ADME; conditions: 10 µM, 37 °C, after 2-h incubation
Description: as §2

[5] = HepG2 cytotoxicity assay (XTT); format: cell-based; conditions: human, 100 µM group, XTT, normalized to DMSO, read-out: HepG2 cell viability
Description: (§3) The HepG2 cells maintained in DMEM (containing 1 g/L glucose, 10% fetal bovine serum [FBS], and 1% penicillin/streptomycin) were seeded in a 12-well plate (a final density of 5 × 10^5 per well) for cell uptake assay and 96-well plate for cytotoxicity assay (a final density of 5 × 10^4 per well). The plate was incubated at 37 °C for 24 h.
(§4) The cells in 96-well plate were treated by CDD-1713 or CDD-1976 at the final concentrations of 0, 10, 20, 50, or 100 μM (n = 3 replicates per concentration level per drug). After 24-h incubation at 37 °C, the medium in the plate was decanted and 100 μL of Dulbecco’s modified Eagle’s medium (DMEM) (without phenol red) was added into each well. The cell variability was measured using XTT method. The absorbance at 475 nm was read with a Tecan M1000 pro machine, with a reference wavelength of 660 nm. The reading was normalized by vehicle with final 0.5% dimethyl sulfoxide (DMSO) for each drug.

HepG2 cells [6] = assay: HepG2 cytotoxicity assay (XTT); format: cell-based; conditions: 24 h; for cytotoxicity in HepG2 cells (in words): 100 μM
Description: as §3, §4

[7] = test system: SARS-CoV-2 (USA_WA1/2020 isolate); assay: RTCA assay for in vitro inhibition of SARS-CoV-2 replication in VERO E6 cells; format: cell-based; conditions: live SARS-CoV-2, 75 h; for IC50, SARS-CoV-2 induced cell death (normalized cell index, RTCA): duplicates
HepG2 cells [8] = assay: HepG2 cell uptake assay; format: in vitro ADME; conditions: 10 μM, 2 h, 37 °C
Description: as §3
The cells in 12-well plate were treated with CDD-1713 or CDD-1976 (final concentration: 10 μM). The plate was incubated at 37 °C for another 2 h. The medium in the plate was decanted and the cells were rinsed with 1 mL of 1× DPBS three times, then 0.5 mL of 0.25% trypsin was added to each well and incubated for 3.5 min (at 37 °C). One milliliter of complete medium was added to each well to quench the reaction. After spinning at 350 × g for 5 min, the cell pellet was reconstituted in MeOH/H2O (vol/vol 1/1) and CDD-1713 or CDD-1976 was extracted from 100 μL of the resulting mixture with 100 μL of ice-cold methanol. The mixtures were centrifuged at rcf 15,000 for 15 min. Three microliters of the supernatant was analyzed by UHPLC-Q Exactive Orbitrap MS (Thermo Fisher Scientific) equipped with a 50-mm × 4.6-mm column (XDB C-18; Agilent Technologies). The column temperature was set at 40 °C. Ultrapure nitrogen was applied as the sheath (45 arbitrary units), auxiliary (10 arbitrary units), sweep (1.0 arbitrary unit), and the collision gas. […]

[9] = test system: SARS-CoV-2 main protease (M^pro); assay: Protein thermal shift stability assay (thermofluor); format: binding; conditions: 1.5 μM protease, various compound concentrations, SYPRO Orange
Description: The dye SYPRO Orange (Thermo Fisher Scientific) was used to perform the protein thermal shift assay. The assay was set up on a 384-well Roche plate where the SARS-CoV-2 main protease at a concentration of 1.5 μM was incubated with the test compound at various concentrations and SYPRO Orange dye at 5× in a 10 μL reaction. The melting curve experiment and data analysis were run on a Roche Lightcycler 480 real-time PCR instrument.

SARS-CoV-2 M^pro = SARS-CoV-2 M^pro (Severe acute respiratory syndrome coronavirus 2, UniProt P0DTD1); assay: M^pro (His tag removed) enzyme inhibition assay, fluorescent peptide reporter; format: biochemical; conditions: Table S1, 25 nM enzyme, 15 µM fluorescent peptide, Morrison equation, SE from triplicates
[10] = read-out: Ki against M^pro (Fig. 2; Fig. 2B M^pro-His-tag), 25 nM enzyme, 15 µM fluorescent peptide, Morrison equation, inactive = less than 90% inhibition at 25 µM
[11] = read-out: Mpro-His Ki, Table S1, 25 nM enzyme, 15 µM fluorescent peptide, Morrison equation, SE from triplicates
[12] = Table S1, 25 nM enzyme, 15 µM fluorescent peptide, Morrison equation, SE from triplicates

Cc1nnc2n1-c1ccc(Cl)cc1C(c1ccccc1)=NC2 [Alprazolam, reference compound]
half-life at 2 μM [1]: 296 min
half-life at 2 μM [2]: 832 min

COc1cc(-c2cccc3[nH]ncc23)cc(C=O)c1OCC(=O)N(C)C [CDD-1713]
compound remained in mouse plasma [3]: 80%
Ki (renin): 53000 nM
Ki (SARS-CoV-2 M^pro-His6; 25 nM enzyme, 15 µM fluorescent peptide, Morrison equation, inactive = less than 90% inhibition at 25 µM, read-out: Ki against M^pro (Fig. 2; Fig. 2B M^pro-His-tag)): 45 ± 3 nM
Ki (SARS-CoV-2 M^pro-His6; Table S1, 25 nM enzyme, 15 µM fluorescent peptide, Morrison equation, SE from triplicates, read-out: Mpro-His Ki): 45 ± 3 nM
Ki (SARS-CoV-2 M^pro-His6; read-out: Ki against M^pro (Fig. 2; Fig. 2B M^pro-His-tag)): 45 nM
metabolic stability in mouse liver microsomes (in words) [1]: metabolically labile
half-life at 2 μM [1]: 8.4 min
compound remained in human plasma [4]: 80%
viability at 24 h, 100 µM [5]: > 80%
cytotoxicity in HepG2 cells (in words) (HepG2 cells [6]): no obvious cytotoxicity
effect on SARS-CoV-2 induced cell death (in words) [7]: reduced cell death in a dose-dependent manner
IC50, SARS-CoV-2 induced cell death (normalized cell index, RTCA) [7]: 5190 nM
cell permeability in uptake assay of HepG2 cells (HepG2 cells [8]): moderate cell permeability
stabilization of M^pro (temperature shift) [9]: stabilized; also recorded: concentration-dependent stabilization
metabolic stability in human liver microsomes (in words) [2]: metabolically labile
half-life at 2 μM [2]: 15.3 min

COc1cc(-c2cccc3[nH]ncc23)cc(C=O)c1OCC(=O)N1CCC(Oc2cccc(C(=O)N(C)C)c2)C1 (stereo not shown) [CDD-1714]
Ki (SARS-CoV-2 M^pro-His6): 20 nM
Ki (SARS-CoV-2 M^pro-His6; [10]): 20 ± 3 nM
Ki (SARS-CoV-2 M^pro-His6; [11]): 20 ± 3 nM
Ki (SARS-CoV-2 M^pro; read-out: Mpro Ki): 24 ± 3 nM
stabilization of M^pro (temperature shift) [9]: stabilized; also recorded: concentration-dependent stabilization

COc1cc(-c2cccc3[nH]ncc23)cc(CO)c1OCC(=O)N(C)C [CDD-1776]
Mpro-His Ki (SARS-CoV-2 M^pro-His6; [12]): Inactive
M^pro inhibitory activity (in words) (SARS-CoV-2 M^pro-His6): completely abolished the activity
Mpro Ki (SARS-CoV-2 M^pro): Inactive

COc1cc(-c2cccc3[nH]ncc23)ccc1OCC(=O)N(C)C [CDD-1793]
Mpro-His Ki (SARS-CoV-2 M^pro-His6; [12]): Inactive
M^pro inhibitory activity (in words) (SARS-CoV-2 M^pro-His6): completely abolished the activity
Mpro Ki (SARS-CoV-2 M^pro): Inactive

COc1cc(-c2cccc3c2cnn3C)cc(C=O)c1OCC(=O)N(C)C [CDD-1847]
Mpro-His Ki (SARS-CoV-2 M^pro-His6; [12]): Inactive
M^pro inhibitory activity (in words) (SARS-CoV-2 M^pro-His6): completely lost activity
Mpro Ki (SARS-CoV-2 M^pro): Inactive
effect on SARS-CoV-2 induced cell death (in words) [7]: unable to prevent cell death
IC50, SARS-CoV-2 induced cell death (normalized cell index, RTCA) [7]: inactive

COc1cc(-c2cccc3[nH]ncc23)cc(C(C)=O)c1OCC(=O)N(C)C [CDD-1883]
Mpro-His Ki (SARS-CoV-2 M^pro-His6; [12]): Inactive
Mpro Ki (SARS-CoV-2 M^pro): Inactive

COc1cc(-c2cccc3[nH]ncc23)cc(C(=O)CO)c1OCC(=O)N(C)C [CDD-1886]
Mpro-His Ki (SARS-CoV-2 M^pro-His6; [12]): Inactive
Mpro Ki (SARS-CoV-2 M^pro): Inactive

CCOC(=O)/C=C/c1cc(-c2cccc3[nH]ncc23)cc(OC)c1OCC(=O)N(C)C [CDD-1971]
Mpro-His Ki (SARS-CoV-2 M^pro-His6; [12]): Inactive
Mpro Ki (SARS-CoV-2 M^pro): Inactive

CN(C)C(=O)COc1ccc(-c2cccc3[nH]ncc23)cc1C=O [CDD-1976]
compound remained in mouse plasma [3]: 80%
Ki (SARS-CoV-2 M^pro-His6): 37 nM
M^pro inhibitory activity (in words) (SARS-CoV-2 M^pro-His6): better inhibition compared to CDD-1713
Ki (SARS-CoV-2 M^pro-His6; [10]): 37 ± 4 nM
Ki (SARS-CoV-2 M^pro-His6; [11]): 37 ± 4 nM
metabolic stability in mouse liver microsomes (in words) [1]: more stable in human liver microsomes, but not mouse
half-life at 2 μM [1]: 10.2 min
compound remained in human plasma [4]: 80%
viability at 24 h, 100 µM ([5]; HepG2 cells): > 80%
cytotoxicity in HepG2 cells (in words) (HepG2 cells [6]): no obvious cytotoxicity
IC50 (HepG2 cells [6]; Homo sapiens, HepG2, XTT assay, read-out: IC50, HepG2 cell viability): > 100000 nM
effect on SARS-CoV-2 induced cell death (in words) [7]: reduced cell death in a dose-dependent manner
cell permeability in uptake assay of HepG2 cells (HepG2 cells [8]): moderate cell permeability
stabilization of M^pro (temperature shift) [9]: stabilized; also recorded: concentration-dependent stabilization; also recorded: most pronounced temperature shift
metabolic stability in human liver microsomes (in words) [2]: more stable
half-life at 2 μM [2]: 41.4 min

CN(C)C(=O)COc1ccc(-c2cccc3[nH]ncc23)cc1C#N [CDD-2038]
Mpro-His Ki (SARS-CoV-2 M^pro-His6; [12]): Inactive
Mpro Ki (SARS-CoV-2 M^pro): Inactive
